Values of other authors, collected in paper PMC10582684 (RSC Advances, 2023).
Read-outs that look alike come from different tables or passages of the source. One block for each compound: values may come before it.

Tests used:
[1] = literature comparison
[2] = oligopeptides from ginkgo seed and bighead carp, high content of Pro
[3] = peptides from walnut protein with Lys in C-terminal tripeptide

Compound: O=C(O)CN(CCN(CC(=O)O)CC(=O)O)CC(=O)O [ethylenediamine tetraacetic acid]
- Chelating ability towards zinc ions [1]: 57.17 mg/g

- Stability against gastrointestinal enzymic digestion (in words) [2]: excellent stability
Compound: LSMSFPPF

Compound: PKPP
- Inhibiting ability on ACE (in words) (ACE; [3]): excellent inhibiting ability on ACE

Compound: PPKP
- Inhibiting ability on ACE (in words) (ACE; [3]): excellent inhibiting ability on ACE

- Stability against gastrointestinal enzymic digestion (in words) [2]: excellent stability
Compound: PPSEPTKL

Compound: TGLL
- Chelating ability towards zinc ions [1]: 2.27 mg/g

- Stability against gastrointestinal enzymic digestion (in words) [2]: excellent stability
Compound: VPKIPPP

Compound: WNGPKGV
- Inhibiting ability on ACE (in words) (ACE; peptide from corn protein with Lys in C-terminal tripeptide): excellent inhibiting ability on ACE

Compound: YIRLHF
- Inhibitory kinetics on ACE (ACE; peptide from bighead carp protein): competitive inhibitory kinetics
